Measured values from paper PMC12213745, “Compounds from Cyclocarya paliurus leaves inhibit binary division of methicillin-resistant Staphylococcus aureus by disrupting FtsZ dynamic” (Frontiers in Microbiology, 2025).

Legend:
S. aureus ATCC25923 = test: SEM analysis, cell long axis; type: cell-based, Staphylococcus aureus; conditions: 2 × MIC, 2 h, mean ± SD, PBS control 0.52 ± 0.05
Description: (§1) Scanning electron microscopy (SEM) was used to observe the morphological changes in bacterial cells treated with the isolated compounds. S. aureus ATCC 25923 and MRSA-4 were grown in MHB to mid-log phase (OD600 = 0.4–0.6) as previously described. The bacteria cultures were treated with AA, MA, or UA at 2 × MIC for 2 h at 37°C with shaking at 150 rpm. Untreated cultures (PBS group) served as the growth control. After incubation, bacterial cells were harvested by centrifugation and washed three times with PBS (pH 7.2). Coverslips (8 mm diameter) were cleaned with absolute ethanol under ultrasonication, air-dried, immersed in 0.1% (w/v) chitosan solution (dissolved in 1% acetic acid) for 5 s, and air-dried again at room temperature ([Su et al., 2022]). A 25 μL aliquot of the washed bacterial suspension was added to each coverslip and allowed to adhere for 1 h at room temperature. Adhered cells were fixed with 1 mL of 2.5% (v/v) glutaraldehyde at 4°C overnight. Fixed samples were rinsed 2–3 times with PBS (5 min per rinse), then dehydrated through a graded ethanol series: 50, 70, and 90% ethanol (each once for 5 min), followed by 100% ethanol (three times for 5 min each). After dehydration, samples were air-dried overnight at room temperature. SEM imaging was performed using an EVO 10 scanning electron microscope (Zeiss, Jena, Germany). Cell long-axis statistical analysis was conducted using ImageJ software (Version 1.42q, National Institutes of Health, MD, USA).
(§2) Having established the antibacterial activity of AA, MA, and UA, we next examined their effects on bacterial morphology. We employed SEM to examine the alterations induced by these compounds in S. aureus ATCC25923 and MRSA-4. Bacterial cultures were treated with AA, MA, or UA at 2 × MIC for 2 h, while untreated (PBS group) cultures served as negative controls. […] In PBS groups, both S. aureus ATCC25923 and MRSA-4 maintained typical spherical morphology with smooth and intact surfaces.

MRSA-4 [1] = test: Time-dependent killing assay; type: cell-based, Methicillin-resistant S. aureus; conditions: for time-kill outcome at 1 × and 2 × MIC: 1 × or 2 × MIC, initial reduction within 2 h, regrowth by 24 h; for nature of antibacterial effect (time-kill assays): MRSA-4
Description: An overnight culture of MRSA-4 was diluted 1:100 in fresh MHB and incubated at 37°C with shaking (200 rpm) until reaching mid-log phase (OD600 = 0.4–0.6). The culture was then adjusted to 1 × 10^6 CFU/mL and treated with AA, MA, or UA at concentrations of 1×, 2×, and 4 × MIC. 2 × MIC of vancomycin was used as a positive control, and an equivalent volume of DMSO served as the negative control. The cultures were incubated at 37°C with shaking (200 rpm) during the assay. At designated time points (0, 1, 2, 4, 8, and 24 h), samples were collected, serially diluted tenfold in sterile PBS, and 100 μL of appropriate dilutions were plated on LB agar. Plates were incubated at 37°C for 18–24 h, and viable bacteria were quantified. All experiments were performed in biological triplicates.
We next performed time-kill kinetics assays to characterize the time-dependent antibacterial effects of AA, MA, and UA against MRSA-4. Bacterial cultures were exposed to AA, MA, and UA at 1×, 2×, and 4 × their respective MICs, and viable CFU were counted at designated time points (0, 1, 2, 4, 8, and 24 h). As shown in the time-kill curves (Figure 1), treatment with 1 × or 2 × MIC of AA, MA, or UA led to an initial reduction in bacterial load within the first 2 h.

MRSA-4 [2] = test: SEM analysis, cell long axis; type: cell-based, Methicillin-resistant S. aureus; conditions: 2 × MIC, 2 h, mean ± SD, PBS control 0.53 ± 0.04
Description: as §1, §2

SaFtsZ = molecular target: T1, SaFtsZ (Staphylococcus aureus, UniProt P0A031); test: FtsZ polymerization assay (A360); type: biochemical; conditions: 10 μM SaFtsZ; 0.25 × and 0.5 × MIC; vs DMSO control
T1 construct: purchased Cytoskeleton, Inc. FTZ02
T1 sequence (P0A031 1-390): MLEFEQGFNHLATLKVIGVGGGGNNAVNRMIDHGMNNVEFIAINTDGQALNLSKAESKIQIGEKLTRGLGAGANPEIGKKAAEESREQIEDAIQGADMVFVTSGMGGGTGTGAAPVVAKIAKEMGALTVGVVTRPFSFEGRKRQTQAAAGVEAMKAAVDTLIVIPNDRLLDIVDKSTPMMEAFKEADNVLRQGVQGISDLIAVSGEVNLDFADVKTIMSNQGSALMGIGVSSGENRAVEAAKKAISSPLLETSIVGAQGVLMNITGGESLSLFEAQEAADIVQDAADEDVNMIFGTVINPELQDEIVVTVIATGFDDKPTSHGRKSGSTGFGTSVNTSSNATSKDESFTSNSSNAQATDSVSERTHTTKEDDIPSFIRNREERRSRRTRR
Description: To assess the effects of AA, MA, and UA on FtsZ polymerization, an in vitro FtsZ polymerization assay was performed. […] Polymerization was initiated by the addition of polymerization buffer components, bringing the final concentrations to 250 mM KCl and 5 mM MgCl2 Absorbance at 360 nm (A360) was monitored for 5 min to establish a stable baseline. GTP was then added to a final concentration of 1 mM. Polymerization was tracked by measuring A360 for 30 min using a microplate reader (SpectraMax i3x, Molecular Devices, CA, USA).
To determine whether the disruptions of Z-ring were due to direct effects on FtsZ polymerization, we performed in vitro polymerization assays. FtsZ polymerization was assessed by monitoring the time-dependent increase in A360 upon induction using a microplate reader. Briefly, 10 μM SaFtsZ was pre-incubated with AA, MA, UA or DMSO, and polymerization was initiated by adding K^+, Mg^2+, and GTP.

Row | SMILES | length of long axis of cells (S. aureus ATCC25923) | time-kill outcome at 1 × and 2 × MIC (MRSA-4 [1]) | bacterial counts (below the detection limit) (MRSA-4 [1]; 4 × MIC) | reduction of viable bacterial counts (MRSA-4 [1]; 4 × MIC, within 2 h) | nature of antibacterial effect (time-kill assays) (MRSA-4 [1]) | length of long axis of cells (MRSA-4 [2]) | effect on FtsZ polymerization (A360) (SaFtsZ) | reduction of viable bacterial counts (MRSA-4 [1]; 4 × MIC, at/over 24 h)
1 | C[C@H]1[C@H](C)CC[C@]2(C(=O)O)CC[C@]3(C)C(=CC[C@@H]4[C@@]5(C)C[C@@H](O)[C@H](O)[C@@](C)(CO)[C@@H]5CC[C@]43C)[C@H]12 [AA, asiatic acid] | 0.78 ± 0.06 μm | primarily bacteriostatic activity | < 2 log10 CFU/mL | > 3 log10 CFU/mL | bactericides | 0.75 ± 0.07 μm | significantly enhanced FtsZ polymerization | 
2 | CC1(C)CC[C@]2(C(=O)O)CC[C@]3(C)C(=CC[C@@H]4[C@@]5(C)C[C@@H](O)[C@H](O)C(C)(C)[C@@H]5CC[C@]43C)[C@@H]2C1 [MA, maslinic acid] | 0.78 ± 0.07 μm | primarily bacteriostatic activity |  |  | bactericides | 0.76 ± 0.10 μm | markedly inhibited FtsZ polymerization | > 3 log10 CFU/mL
3 | C[C@H]1[C@H](C)CC[C@]2(C(=O)O)CC[C@]3(C)C(=CC[C@@H]4[C@@]5(C)CC[C@H](O)C(C)(C)[C@@H]5CC[C@]43C)[C@H]12 [UA, ursolic acid] | 0.75 ± 0.05 μm | primarily bacteriostatic activity |  |  | bacteriostatic | 0.69 ± 0.06 μm | markedly inhibited FtsZ polymerization | ≤ 3 log10 CFU/mL
